Results reported in PubChem BioAssay AID1963961 (Molecular Pharmacology Branch, DTP, NCI, 2024).

Tested on: K98450-129-R-PDC multicell spheroids, viability
Assay: Anticancer human tumor K98450-129-R-PDC patient-derived colon adenocarcinoma cell line growth inhibition [PI3K]
Details: for IC50: curve of first compound; for viability, T/C: stronger effect = lower value
Outline: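 Stroma-containing spheroids: tumor line, pooled-donor HUVEC, hMSC. Treatments: targeted agents with PI3K inhibitors. Dosing: clinically relevant, half-log spacing, 10 microM ceiling without known Cmax. Read-out: cell viability.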

[1] = second compound 0.00316 µM, first compound 0.0316 µM
[2] = second compound 0.00316 µM, first compound 0.1 µM
[3] = second compound 0.00316 µM, first compound 0.316 µM
[4] = second compound 0.00316 µM, first compound 1 µM
[5] = second compound 0.00316 µM, first compound 3.16 µM
[6] = second compound 0.00316 µM, first compound 10 µM
[7] = second compound 0.01 µM, first compound 0.0316 µM
[8] = second compound 0.01 µM, first compound 0.1 µM
[9] = second compound 0.01 µM, first compound 0.316 µM
[10] = second compound 0.01 µM, first compound 1 µM
[11] = second compound 0.01 µM, first compound 3.16 µM
[12] = second compound 0.01 µM, first compound 10 µM
[13] = second compound 0.0316 µM, first compound 0.0316 µM
[14] = second compound 0.0316 µM, first compound 0.1 µM
[15] = second compound 0.0316 µM, first compound 0.316 µM
[16] = second compound 0.0316 µM, first compound 1 µM
[17] = second compound 0.0316 µM, first compound 3.16 µM
[18] = second compound 0.0316 µM, first compound 10 µM
[19] = second compound 0.1 µM, first compound 0.0316 µM
[20] = second compound 0.1 µM, first compound 0.1 µM
[21] = second compound 0.1 µM, first compound 0.316 µM
[22] = second compound 0.1 µM, first compound 1 µM
[23] = second compound 0.1 µM, first compound 3.16 µM
[24] = second compound 0.1 µM, first compound 10 µM
[25] = second compound 0.316 µM, first compound 0.0316 µM
[26] = second compound 0.316 µM, first compound 0.1 µM
[27] = second compound 0.316 µM, first compound 0.316 µM
[28] = second compound 0.316 µM, first compound 1 µM
[29] = second compound 0.316 µM, first compound 3.16 µM
[30] = second compound 0.316 µM, first compound 10 µM
[31] = second compound 1 µM, first compound 0.0316 µM
[32] = second compound 1 µM, first compound 0.1 µM
[33] = second compound 1 µM, first compound 0.316 µM
[34] = second compound 1 µM, first compound 1 µM
[35] = second compound 1 µM, first compound 3.16 µM
[36] = second compound 1 µM, first compound 10 µM
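Note: spheroids exposed to agents for seven days before read-out.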

SMILES: CC1(C)CCC(CN2CCN(c3ccc(C(=O)NS(=O)(=O)c4ccc(NCC5CCOCC5)c([N+](=O)[O-])c4)c(Oc4cnc5[nH]ccc5c4)c3)CC2)=C(c2ccc(Cl)cc2)C1 + COc1c(OCCCN2CCOCC2)ccc2c3n(c(=NC(=O)c4cnc(N)nc4)nc12)CCN3
- IC50 (second compound 0.00316 µM): > 10 µM
- IC50 (second compound 0.01 µM): > 10 µM
- IC50 (second compound 0.0316 µM): > 10 µM
- IC50 (second compound 0.1 µM): > 10 µM
- IC50 (second compound 0.316 µM): > 10 µM
- IC50 (second compound 1 µM): > 10 µM
- viability, T/C [1]: 94.9%
- viability, T/C [2]: 112%
- viability, T/C [3]: 107%
- viability, T/C [4]: 96.1%
- viability, T/C [5]: 93.7%
- viability, T/C [6]: 97.1%
- viability, T/C [7]: 125%
- viability, T/C [8]: 111%
- viability, T/C [9]: 119%
- viability, T/C [10]: 104%
- viability, T/C [11]: 95.7%
- viability, T/C [12]: 86%
- viability, T/C [13]: 101%
- viability, T/C [14]: 96.3%
- viability, T/C [15]: 104%
- viability, T/C [16]: 99.6%
- viability, T/C [17]: 96.8%
- viability, T/C [18]: 85.1%
- viability, T/C [19]: 72.8%
- viability, T/C [20]: 76.8%
- viability, T/C [21]: 91.2%
- viability, T/C [22]: 90.5%
- viability, T/C [23]: 80.4%
- viability, T/C [24]: 72.7%
- viability, T/C [25]: 60%
- viability, T/C [26]: 48%
- viability, T/C [27]: 75.6%
- viability, T/C [28]: 60.6%
- viability, T/C [29]: 53.5%
- viability, T/C [30]: 55.2%
- viability, T/C [31]: 49.1%
- viability, T/C [32]: 49.6%
- viability, T/C [33]: 59.6%
- viability, T/C [34]: 54.6%
- viability, T/C [35]: 41.4%
- viability, T/C [36]: 54.2%

SMILES: C[C@@H](NC(=O)c1ncnc(N)c1Cl)c1ncc(C(=O)Nc2cc(C(F)(F)F)c(Cl)cn2)s1 + COc1c(OCCCN2CCOCC2)ccc2c3n(c(=NC(=O)c4cnc(N)nc4)nc12)CCN3
- IC50 (second compound 0.00316 µM): > 10 µM
- IC50 (second compound 0.01 µM): > 10 µM
- IC50 (second compound 0.0316 µM): > 10 µM
- IC50 (second compound 0.1 µM): > 10 µM
- IC50 (second compound 0.316 µM): > 10 µM
- IC50 (second compound 1 µM): 4.39 µM
- viability, T/C [1]: 119%
- viability, T/C [2]: 119%
- viability, T/C [3]: 108%
- viability, T/C [4]: 117%
- viability, T/C [5]: 133%
- viability, T/C [6]: 95%
- viability, T/C [7]: 108%
- viability, T/C [8]: 93.7%
- viability, T/C [9]: 115%
- viability, T/C [10]: 108%
- viability, T/C [11]: 105%
- viability, T/C [12]: 95.9%
- viability, T/C [13]: 83.5%
- viability, T/C [14]: 96%
- viability, T/C [15]: 97.4%
- viability, T/C [16]: 93%
- viability, T/C [17]: 109%
- viability, T/C [18]: 78.7%
- viability, T/C [19]: 76%
- viability, T/C [20]: 87%
- viability, T/C [21]: 98.4%
- viability, T/C [22]: 90.3%
- viability, T/C [23]: 101%
- viability, T/C [24]: 70.9%
- viability, T/C [25]: 54.8%
- viability, T/C [26]: 71.6%
- viability, T/C [27]: 65.2%
- viability, T/C [28]: 69.2%
- viability, T/C [29]: 68.2%
- viability, T/C [30]: 51.1%
- viability, T/C [31]: 58.3%
- viability, T/C [32]: 55%
- viability, T/C [33]: 51.1%
- viability, T/C [34]: 62.1%
- viability, T/C [35]: 59.6%
- viability, T/C [36]: 37.1%

SMILES: Cn1ncnc1[C@H]1c2n[nH]c(=O)c3cc(F)cc(c23)N[C@@H]1c1ccc(F)cc1 + COc1c(OCCCN2CCOCC2)ccc2c3n(c(=NC(=O)c4cnc(N)nc4)nc12)CCN3
- IC50 (second compound 0.00316 µM): > 0.1 µM
- IC50 (second compound 0.01 µM): > 0.1 µM
- IC50 (second compound 0.0316 µM): > 0.1 µM
- IC50 (second compound 0.1 µM): > 0.1 µM
- IC50 (second compound 0.316 µM): > 0.1 µM
- IC50 (second compound 1 µM): > 0.1 µM
- viability, T/C (second compound 0.00316 µM, first compound 0.000316 µM): 98.6%
- viability, T/C (second compound 0.00316 µM, first compound 0.001 µM): 95.2%
- viability, T/C (second compound 0.00316 µM, first compound 0.00316 µM): 96.7%
- viability, T/C (second compound 0.00316 µM, first compound 0.01 µM): 98%
- viability, T/C [1]: 100%
- viability, T/C [2]: 92.9%
- viability, T/C (second compound 0.01 µM, first compound 0.000316 µM): 91.8%
- viability, T/C (second compound 0.01 µM, first compound 0.001 µM): 89.6%
- viability, T/C (second compound 0.01 µM, first compound 0.00316 µM): 95.1%
- viability, T/C (second compound 0.01 µM, first compound 0.01 µM): 96.9%
- viability, T/C [7]: 94.6%
- viability, T/C [8]: 91.9%
- viability, T/C (second compound 0.0316 µM, first compound 0.000316 µM): 90.1%
- viability, T/C (second compound 0.0316 µM, first compound 0.001 µM): 88.7%
- viability, T/C (second compound 0.0316 µM, first compound 0.00316 µM): 94.5%
- viability, T/C (second compound 0.0316 µM, first compound 0.01 µM): 90.6%
- viability, T/C [13]: 89.5%
- viability, T/C [14]: 70.1%
- viability, T/C (second compound 0.1 µM, first compound 0.000316 µM): 92.3%
- viability, T/C (second compound 0.1 µM, first compound 0.001 µM): 85.5%
- viability, T/C (second compound 0.1 µM, first compound 0.00316 µM): 88.6%
- viability, T/C (second compound 0.1 µM, first compound 0.01 µM): 89.8%
- viability, T/C [19]: 89.5%
- viability, T/C [20]: 78.6%
- viability, T/C (second compound 0.316 µM, first compound 0.000316 µM): 56.6%
- viability, T/C (second compound 0.316 µM, first compound 0.001 µM): 63.6%
- viability, T/C (second compound 0.316 µM, first compound 0.00316 µM): 64.5%
- viability, T/C (second compound 0.316 µM, first compound 0.01 µM): 48.5%
- viability, T/C [25]: 59.1%
- viability, T/C [26]: 65.4%
- viability, T/C (second compound 1 µM, first compound 0.000316 µM): 49.9%
- viability, T/C (second compound 1 µM, first compound 0.001 µM): 58%
- viability, T/C (second compound 1 µM, first compound 0.00316 µM): 52.8%
- viability, T/C (second compound 1 µM, first compound 0.01 µM): 62%
- viability, T/C [31]: 56.5%
- viability, T/C [32]: 54.1%
